Measurements: the supplement of paper PMC10307832

Assays:
Test in all cases: relative viability (nuclei count vs DMSO), 5 days (fraction); higher = more cells survive
[1] = compound: COc1cc(N2CCC(N3CCN(C)CC3)CC2)ccc1Nc1ncc(Cl)c(Nc2ccccc2S(=O)(=O)C(C)C)n1 [NVP-TAE684] + Nc1nc2[nH]cc(CCc3ccc(C(=O)N[C@@H](CCC(=O)O)C(=O)O)cc3)c2c(=O)[nH]1 [Pemetrexed] (partner 0.2 µM)
Method in brief: (§1)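 Medians of duplicate plates are given as relative viability. That measure is the nuclei count in treated wells divided by the count in vehicle wells. Counts were taken on 4× images of lung cancer cell lines in 1536-well plates, 5 days after pin-tool dosing the day after seeding with one drug alone or a fixed anchor-drug dose plus five library-drug doses (not always all listed) in √10 steps.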

[2] = compound: COc1cc(N2CCC(N3CCN(C)CC3)CC2)ccc1Nc1ncc(Cl)c(Nc2ccccc2S(=O)(=O)C(C)C)n1 [NVP-TAE684] + O=C(CCCCCCC(=O)Nc1ccccc1)NO [Vorinostat] (partner 1 µM)
Method in brief: as §1

[3] = compound: C#Cc1cccc(Nc2ncnc3cc(OC)c(OCCCCCCC(=O)NO)cc23)c1 [CUDC-101] + O=C(c1cc(Cc2n[nH]c(=O)c3ccccc23)ccc1F)N1CCN(C(=O)C2CC2)CC1 [Olaparib] (partner 8 µM)
Method in brief: as §1

[4] = compound: C#Cc1cccc(Nc2ncnc3cc(OC)c(OCCCCCCC(=O)NO)cc23)c1 [CUDC-101] + C[C@@H](Oc1cc(-c2cnn(C3CCNCC3)c2)cnc1N)c1c(Cl)ccc(F)c1Cl [Crizotinib] (partner 1 µM)
Method in brief: as §1

Cell Line: NCI-H460
- relative viability ([1]; first compound 0.2 µM): 0.0526
- relative viability ([1]; first compound 0.6325 µM): 0.0587
- relative viability ([1]; first compound 2 µM): 0.0483
- relative viability ([2]; first compound 0.6325 µM): 0.806
- relative viability ([2]; first compound 2 µM): 0.106
- relative viability ([3]; first compound 0.01 µM): 0.458
- relative viability ([3]; first compound 0.03162 µM): 0.42
- relative viability ([3]; first compound 0.1 µM): 0.428
- relative viability ([3]; first compound 0.3162 µM): 0.465
- relative viability ([3]; first compound 1 µM): 0.349
- relative viability ([4]; first compound 0.01 µM): 1.04
- relative viability ([4]; first compound 0.03162 µM): 0.982
- relative viability ([4]; first compound 0.1 µM): 0.719
- relative viability ([4]; first compound 0.3162 µM): 1.06
- relative viability ([4]; first compound 1 µM): 0.787

Cell Line: NCI-H520
- relative viability ([1]; first compound 0.2 µM): 0.694
- relative viability ([1]; first compound 0.6325 µM): 0.823
- relative viability ([1]; first compound 2 µM): 0.326
- relative viability ([2]; first compound 0.2 µM): 0.776
- relative viability ([2]; first compound 0.6325 µM): 0.681
- relative viability ([2]; first compound 2 µM): 0.313
- relative viability ([3]; first compound 0.01 µM): 0.298
- relative viability ([3]; first compound 0.03162 µM): 0.325
- relative viability ([3]; first compound 0.1 µM): 0.305
- relative viability ([3]; first compound 0.3162 µM): 0.298
- relative viability ([3]; first compound 1 µM): 0.194
- relative viability ([4]; first compound 0.01 µM): 0.743
- relative viability ([4]; first compound 0.1 µM): 0.756
- relative viability ([4]; first compound 0.3162 µM): 0.636
- relative viability ([4]; first compound 1 µM): 0.316

Cell Line: NCI-H596
- relative viability ([1]; first compound 0.2 µM): 0.56
- relative viability ([1]; first compound 0.6325 µM): 0.43
- relative viability ([1]; first compound 2 µM): 0.45
- relative viability ([2]; first compound 0.2 µM): 0.565
- relative viability ([2]; first compound 0.6325 µM): 0.578
- relative viability ([2]; first compound 2 µM): 0.647
- relative viability ([3]; first compound 0.01 µM): 0.616
- relative viability ([3]; first compound 0.03162 µM): 0.597
- relative viability ([3]; first compound 0.1 µM): 0.718
- relative viability ([3]; first compound 0.3162 µM): 0.689
- relative viability ([3]; first compound 1 µM): 0.67
- relative viability ([4]; first compound 0.01 µM): 0.675
- relative viability ([4]; first compound 0.03162 µM): 1
- relative viability ([4]; first compound 0.1 µM): 1.01
- relative viability ([4]; first compound 0.3162 µM): 0.979
- relative viability ([4]; first compound 1 µM): 0.536

Cell Line: NCI-H647
- relative viability ([1]; first compound 0.2 µM): 0.18
- relative viability ([1]; first compound 0.6325 µM): 0.148
- relative viability ([1]; first compound 2 µM): 0.106
- relative viability ([2]; first compound 0.2 µM): 0.792
- relative viability ([2]; first compound 0.6325 µM): 0.6
- relative viability ([2]; first compound 2 µM): 0.174
- relative viability ([3]; first compound 0.01 µM): 0.547
- relative viability ([3]; first compound 0.03162 µM): 0.522
- relative viability ([3]; first compound 0.1 µM): 0.67
- relative viability ([3]; first compound 0.3162 µM): 0.554
- relative viability ([3]; first compound 1 µM): 0.342
- relative viability ([4]; first compound 0.01 µM): 1.27
- relative viability ([4]; first compound 0.03162 µM): 1.03
- relative viability ([4]; first compound 0.1 µM): 1.09
- relative viability ([4]; first compound 0.3162 µM): 0.909
- relative viability ([4]; first compound 1 µM): 0.533

Cell Line: NCI-H650
- relative viability ([1]; first compound 0.2 µM): 0.901
- relative viability ([1]; first compound 0.6325 µM): 0.939
- relative viability ([1]; first compound 2 µM): 0.757
- relative viability ([2]; first compound 0.2 µM): 0.428
- relative viability ([2]; first compound 0.6325 µM): 0.298
- relative viability ([2]; first compound 2 µM): 0.406
- relative viability ([3]; first compound 0.01 µM): 0.393
- relative viability ([3]; first compound 0.03162 µM): 0.377
- relative viability ([3]; first compound 0.1 µM): 0.337
- relative viability ([3]; first compound 0.3162 µM): 0.299
- relative viability ([3]; first compound 1 µM): 0.185
- relative viability ([4]; first compound 0.01 µM): 0.835
- relative viability ([4]; first compound 0.03162 µM): 0.783
- relative viability ([4]; first compound 0.1 µM): 0.771
- relative viability ([4]; first compound 0.3162 µM): 0.532
- relative viability ([4]; first compound 1 µM): 0.454

Cell Line: NCI-H661
- relative viability ([1]; first compound 0.2 µM): 0.959
- relative viability ([1]; first compound 0.6325 µM): 0.924
- relative viability ([1]; first compound 2 µM): 0.894
- relative viability ([2]; first compound 0.2 µM): 0.817
- relative viability ([2]; first compound 0.6325 µM): 0.741
- relative viability ([2]; first compound 2 µM): 0.445
- relative viability ([3]; first compound 0.01 µM): 0.795
- relative viability ([3]; first compound 0.03162 µM): 0.69
- relative viability ([3]; first compound 0.1 µM): 0.632
- relative viability ([3]; first compound 0.3162 µM): 0.611
- relative viability ([3]; first compound 1 µM): 0.437
- relative viability ([4]; first compound 0.01 µM): 1.07
- relative viability ([4]; first compound 0.03162 µM): 1.08
- relative viability ([4]; first compound 0.1 µM): 0.954
- relative viability ([4]; first compound 0.3162 µM): 1.03
- relative viability ([4]; first compound 1 µM): 0.943

Cell Line: NCI-H838
- relative viability ([1]; first compound 0.2 µM): 0.25
- relative viability ([1]; first compound 0.6325 µM): 0.239
- relative viability ([1]; first compound 2 µM): 0.17
- relative viability ([2]; first compound 0.2 µM): 0.76
- relative viability ([2]; first compound 0.6325 µM): 0.692
- relative viability ([2]; first compound 2 µM): 0.334
- relative viability ([3]; first compound 0.01 µM): 0.802
- relative viability ([3]; first compound 0.03162 µM): 0.784
- relative viability ([3]; first compound 0.1 µM): 0.807
- relative viability ([3]; first compound 0.3162 µM): 0.649
- relative viability ([3]; first compound 1 µM): 0.489
- relative viability ([4]; first compound 0.01 µM): 0.87
- relative viability ([4]; first compound 0.03162 µM): 0.74
- relative viability ([4]; first compound 0.1 µM): 0.832
- relative viability ([4]; first compound 0.3162 µM): 0.669
- relative viability ([4]; first compound 1 µM): 0.382

Cell Line: NCI-H1355
- relative viability ([1]; first compound 0.2 µM): 1.01
- relative viability ([1]; first compound 0.6325 µM): 0.984
- relative viability ([1]; first compound 2 µM): 0.793
- relative viability ([2]; first compound 0.2 µM): 0.561
- relative viability ([2]; first compound 0.6325 µM): 0.605
- relative viability ([2]; first compound 2 µM): 0.327
- relative viability ([3]; first compound 0.01 µM): 0.756
- relative viability ([3]; first compound 0.03162 µM): 0.711
- relative viability ([3]; first compound 0.1 µM): 0.726
- relative viability ([3]; first compound 0.3162 µM): 0.693
- relative viability ([3]; first compound 1 µM): 0.585
- relative viability ([4]; first compound 0.01 µM): 1.06
- relative viability ([4]; first compound 0.03162 µM): 1.02
- relative viability ([4]; first compound 0.1 µM): 1.15
- relative viability ([4]; first compound 0.3162 µM): 1.07
- relative viability ([4]; first compound 1 µM): 0.906

Cell Line: NCI-H1437
- relative viability ([1]; first compound 0.2 µM): 0.354
- relative viability ([1]; first compound 0.6325 µM): 0.327
- relative viability ([1]; first compound 2 µM): 0.243
- relative viability ([2]; first compound 0.2 µM): 0.832
- relative viability ([2]; first compound 0.6325 µM): 0.899
- relative viability ([2]; first compound 2 µM): 0.426
- relative viability ([3]; first compound 0.01 µM): 0.676
- relative viability ([3]; first compound 0.03162 µM): 0.649
- relative viability ([3]; first compound 0.1 µM): 0.642
- relative viability ([3]; first compound 0.3162 µM): 0.605
- relative viability ([3]; first compound 1 µM): 0.537
- relative viability ([4]; first compound 0.01 µM): 1.13
- relative viability ([4]; first compound 0.03162 µM): 0.862
- relative viability ([4]; first compound 0.1 µM): 0.963
- relative viability ([4]; first compound 0.3162 µM): 0.941
- relative viability ([4]; first compound 1 µM): 0.916
